From patent US7205343B2, “Stabilized bioactive preparations and method of use” (priority 1997, dated 2007) come the findings set out here.

The nature of data set [1]: Surfactant adsorption/spreading at the air/water interface. In kind it is physicochemical. From the text: Stabilized dispersions formed according to the present invention provide for enhanced surfactant spreading at the pulmonary air/water interface. In this regard, the equilibrium surface tension of dimyristoylphosphatidylcholine is ca. 22 mN/m. […] The slow adsorption for liposomes is due to the slow molecular diffusion of DMPC through the water phase. […] This rapid spreading and reduction of surface tension is indicative of what would occur upon contacting the perforated microstructures with a wetted pulmonary membrane.

A further data set relates to serum glucose. The data set can be described thus: Serum glucose levels after LDI or IM insulin administration. In kind it is in vivo. As to conditions: fasting rabbits. As for the experimental part: In the case of LDI administration, rabbits were anesthetized, intubated, placed on a respirator, and their lungs were instilled with ca. 4.5 ml/kg of perflubron. […] Control animals were injected IM with a similar dose of insulin (Humulin R).

Data set [2] in a line: Plasma insulin pharmacokinetics after LDI or IM administration (radioimmunoassay). In kind it is in vivo. To be noted: fasting rabbits.
Data set [3] is described as follows: Gentamicin biodistribution in lung lobes by immunoassay. In kind it is in vivo, New Zealand white rabbits. To be noted: rabbits; 5 mg/kg; one hour post-administration. The source says: Individual lobes of the lungs were collected and analyzed quantitatively for gentamicin by an immunoassay method. […] Excellent biodistribution across the lung lobes was observed following either IM or LDI administration.

Details of data set [4]: species or system rats. As to conditions: Wistar, rat, in vivo. As for the experimental part: Ampicillin concentrations in lung tissue and serum were measured for the two treatment groups in Example XV by a bioassay method. In this method, 60 μl of lung tissue homogenate, or serum obtained from the rats at various points after dosing is placed on a sterile disk. The desk is them placed on an agar plate covered with S. pneumoniae and incubated for 24 hr. […] The no-growth zones were quantitated, and concentrations of antibiotic were calculated based on a standard curve.

In another data set the test system is Streptococcus pneumoniae. As to the kind of experiment: Acute pneumonia model, survival after antibiotic treatment. To be noted: rats inoculated intratracheally with 10^9 cfu S. pneumoniae; 10 mg ampicillin intramuscular one day after inoculation. The class given is in vivo, Male Wistar rats. The source says:
Male Wistar rats […] were inoculated intratracheally with 10^9 colony forming units of Streptococcus pneumoniae. The model is an acute pneumonia model with 100% of untreated control animals dying within 4 days of inoculation.

Turning to `CCCCCCCCCCCCCC(=O)OC[C@H](COP(=O)([O-])OCC[N+](C)(C)C)OC(=O)CCCCCCCCCCCCC` [DMPC, dimyristoylphosphatidylcholine], the equilibrium surface tension result in data set [1] is recorded as “ca. 22 mN/m”.

Regarding Human Insulin, the Serum glucose level in the data set with serum glucose (IM Humulin R, 0 min) stood at 184.2 mg/dL; in the data set on serum glucose (IM Humulin R, 5 min), 253.6 mg/dL; with serum glucose (IM Humulin R, 10 min), 256.0 mg/dL; with serum glucose (IM Humulin R, 15 min), 216.8 mg/dL; in the data set with serum glucose (IM Humulin R, 30 min) it was 168.2 mg/dL; in the data set on serum glucose (IM Humulin R, 60 min), 82.0 mg/dL. The Serum glucose level with serum glucose (IM Humulin R, 90 min) worked out at 48.2 mg/dL; with serum glucose (IM Humulin R, 120 min) it was 18.0 mg/dL; in the data set on serum glucose (IM Humulin R, 150 min), 29.4 mg/dL; in the data set with serum glucose (IM Humulin R, 180 min), 28.8 mg/dL; in the data set with serum glucose (IM Humulin R, 240 min), 29.4 mg/dL; in the data set with serum glucose (IM Humulin R, 360 min) it was 115.8 mg/dL. In addition, the Serum glucose level was found to be 175.7 mg/dL in the data set with serum glucose (LDI Example XI formulation in perflubron, 0.86 IU/kg, 0 min); 218.8 mg/dL in the data set on serum glucose (LDI Example XI formulation in perflubron, 0.86 IU/kg, 5 min); 211.7 mg/dL in the data set with serum glucose (LDI Example XI formulation in perflubron, 0.86 IU/kg, 10 min); 198.2 mg/dL with serum glucose (LDI Example XI formulation in perflubron, 0.86 IU/kg, 15 min); 143.3 mg/dL in the data set on serum glucose (LDI Example XI formulation in perflubron, 0.86 IU/kg, 30 min); 83.2 mg/dL in the data set on serum glucose (LDI Example XI formulation in perflubron, 0.86 IU/kg, 60 min). For the same compound, the Serum glucose level with serum glucose (LDI Example XI formulation in perflubron, 0.86 IU/kg, 90 min) is 38.2 mg/dL; in the data set with serum glucose (LDI Example XI formulation in perflubron, 0.86 IU/kg, 120 min) it was 31.2 mg/dL; with serum glucose (LDI Example XI formulation in perflubron, 0.86 IU/kg, 150 min) it was 31.7 mg/dL; in the data set with serum glucose (LDI Example XI formulation in perflubron, 0.86 IU/kg, 180 min), 33.4 mg/dL; in the data set with serum glucose (LDI Example XI formulation in perflubron, 0.86 IU/kg, 240 min) it was 49.2 mg/dL. Besides, the Cmax in data set [2] (IM, Humulin R, dose similar to 0.86 IU/kg, plasma insulin) was found to be 110.5 μU/ml; in data set [2] (LDI (4.5 ml/kg perflubron), Example XI formulation, 0.86 IU/kg, plasma insulin) it was 210.4 μU/ml. For the same compound, the AUC is reported as 20770 μU min/ml in data set [2] (IM, Humulin R, plasma insulin) and 11100 μU min/ml in data set [2] (LDI (4.5 ml/kg perflubron), Example XI formulation, 0.86 IU/kg). Moreover, in data set [2] (IM, Humulin R, plasma insulin), the Tmax stood at 1 h.

gentamicin: in data set [3], the “lung gentamicin concentrations following LDI relative to IM” value was “ca. 2 orders of magnitude higher”.

Take `CC1(C)S[C@@H]2[C@H](NC(=O)[C@H](N)c3ccccc3)C(=O)N2[C@H]1C(=O)O` [Ampicillin]: in data set [4], the “local lung concentrations with LDI delivery relative to IM” value is reported as 250 times higher, the “persistence of local lung concentrations with LDI delivery” value is given as “persisted for several days” and the “persistence of serum levels following LDI administration” value is “at least 4 hours”. Further, the “serum ampicillin levels following IM administration” value in data set [4] (2 h) was “undetectable”. Further, the “animals surviving to 10 days” value in the data set with Streptococcus pneumoniae turned out to be 27%.
